# Measurements taken from patent US7183267B2, “β-lactamase inhibitors and methods of use thereof” (priority 2003, dated 2007).
# What was measured:
# [1] = system: methicillin resistant S. aureus from Stanford University Hospital (MRSA-SU); assay: Matrix system: oxacillin plus β-lactamase inhibitor, MRSA-SU; type: cell-based
# Protocol: To each well of a 96 well microtiter plate was added 47.5 μl of MHB. A volume of 2.5 μl of each dilution of oxacillin was then transferred to appropriate wells containing the medium. All wells, except the sterility control wells, were then inoculated with 50 μl of a diluted cell suspension to give a final volume of 100 μl and a final cell density of 5×10^4 CFU/well. The volume in the sterility control wells was adjusted to 100 μl with MHB. A sterile pipette tip was used to mix the contents of each well (one tip was used going from the low to the high concentration in the same column). The microtiter plates were covered with the lids and were placed in large Stratagene Big Blue plates (Cat. # 400041). Four large kimwipes moistened with tap water were placed near the edges of the Stratagene plates to prevent evaporation of the medium. The microtiter plates were incubated for at least 24 hours at 35° C. The plates were then evaluated for growth in each well. Controls included: medium sterility and negative control (medium and bacteria only).
# A numerical code was used to evaluate the extent of growth as indicated below. • 0: absence of growth • 1: barely visible (faint) growth • 2: fair growth but less than the negative solvent control • 3: growth is equivalent to the negative solvent control.
# The lowest dose at which no visible growth is observed was determined to be the MIC value.
# The effect of the four compounds of the present invention on oxacillin resistance of the MRSA strains was determined using a matrix system. The β-lactamase inhibitors were tested at 5 doses against up to eleven concentrations of oxacillin. […] A 96-well microtiter plate was used for the matrix system. The procedure was identical to that described above for the MIC determination, with the exception that both oxacillin and one each of the β-lactamase inhibitors was added, 2.5 μl each, to the wells prior to addition of the test organisms.
# Matrix Study:Oxacillin and Compound FL201 with MRSA-SU
# Matrix Study: Oxacillin and Compound FL202 with MRSA-SU
# [2] = system: methicillin resistant S. aureus from Stanford University Hospital (MRSA-SU); assay: MIC assay, broth microdilution, MRSA-SU; type: cell-based; settings: Staphylococcus aureus, MRSA, 24 h
# Outline: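 MRSA clinical isolate from Stanford University Hospital, tested in duplicate by NCCLS (2000) broth microdilution in Mueller-Hinton broth at 5×10^5 CFU/ml. Compounds were tested as two-fold dilutions at 512–4 μg/ml, with DMSO stocks, and incubated ≥24 h at 35 °C. MIC was the lowest dose with no visible growth.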
smiles,measurement,setting,value
O=C(OCc1ccccc1)c1cc(B(O)O)cc([N+](=O)[O-])c1 [Compound F1201],MIC (oxacillin),"[1]; Table 17, in presence of F1201 2 μg/ml",64 µg/mL
same,MIC (oxacillin),"[1]; Table 17, in presence of F1201 4 μg/ml",16 µg/mL
same,MIC (oxacillin),"[1]; Table 17, in presence of F1201 8 μg/ml",0.5 µg/mL
same,MIC (oxacillin),"[1]; Table 17, in presence of F1201 16 μg/ml",<0.064 µg/mL
same,growth score,"[1]; Table 17, oxacillin 0, F1201 2 μg/ml",3
same,growth score,"[1]; Table 17, oxacillin 0, F1201 4 μg/ml",2
same,growth score,"[1]; Table 17, oxacillin 0, F1201 8 μg/ml",2
same,growth score,"[1]; Table 17, oxacillin 0, F1201 16 μg/ml",1
same,growth score,"[1]; Table 17, oxacillin 0, F1201 32 μg/ml",0
same,growth score,"[1]; Table 17, oxacillin 0.064 μg/ml + F1201 2 μg/ml",2
same,growth score,"[1]; Table 17, oxacillin 0.064 μg/ml + F1201 4 μg/ml",2
same,growth score,"[1]; Table 17, oxacillin 0.064 μg/ml + F1201 8 μg/ml",1
same,growth score,"[1]; Table 17, oxacillin 0.064 μg/ml + F1201 16 μg/ml",0
same,growth score,"[1]; Table 17, oxacillin 0.064 μg/ml + F1201 32 μg/ml",0
same,growth score,"[1]; Table 17, oxacillin 0.125 μg/ml + F1201 2 μg/ml",2
same,growth score,"[1]; Table 17, oxacillin 0.125 μg/ml + F1201 4 μg/ml",2
same,growth score,"[1]; Table 17, oxacillin 0.125 μg/ml + F1201 8 μg/ml",1
same,growth score,"[1]; Table 17, oxacillin 0.125 μg/ml + F1201 16 μg/ml",0
same,growth score,"[1]; Table 17, oxacillin 0.125 μg/ml + F1201 32 μg/ml",0
same,growth score,"[1]; Table 17, oxacillin 0.25 μg/ml + F1201 2 μg/ml",2
same,growth score,"[1]; Table 17, oxacillin 0.25 μg/ml + F1201 4 μg/ml",1
same,growth score,"[1]; Table 17, oxacillin 0.25 μg/ml + F1201 8 μg/ml",1
same,growth score,"[1]; Table 17, oxacillin 0.25 μg/ml + F1201 16 μg/ml",0
same,growth score,"[1]; Table 17, oxacillin 0.25 μg/ml + F1201 32 μg/ml",0
same,growth score,"[1]; Table 17, oxacillin 0.5 μg/ml + F1201 2 μg/ml",2
same,growth score,"[1]; Table 17, oxacillin 0.5 μg/ml + F1201 4 μg/ml",1
same,growth score,"[1]; Table 17, oxacillin 0.5 μg/ml + F1201 8 μg/ml",0
same,growth score,"[1]; Table 17, oxacillin 0.5 μg/ml + F1201 16 μg/ml",0
same,growth score,"[1]; Table 17, oxacillin 0.5 μg/ml + F1201 32 μg/ml",0
same,growth score,"[1]; Table 17, oxacillin 1 μg/ml + F1201 2 μg/ml",1
same,growth score,"[1]; Table 17, oxacillin 1 μg/ml + F1201 4 μg/ml",1
same,growth score,"[1]; Table 17, oxacillin 1 μg/ml + F1201 8 μg/ml",0
same,growth score,"[1]; Table 17, oxacillin 1 μg/ml + F1201 16 μg/ml",0
same,growth score,"[1]; Table 17, oxacillin 1 μg/ml + F1201 32 μg/ml",0
same,growth score,"[1]; Table 17, oxacillin 2 μg/ml + F1201 2 μg/ml",1
same,growth score,"[1]; Table 17, oxacillin 2 μg/ml + F1201 4 μg/ml",1
same,growth score,"[1]; Table 17, oxacillin 2 μg/ml + F1201 8 μg/ml",0
same,growth score,"[1]; Table 17, oxacillin 2 μg/ml + F1201 16 μg/ml",0
same,growth score,"[1]; Table 17, oxacillin 2 μg/ml + F1201 32 μg/ml",0
same,growth score,"[1]; Table 17, oxacillin 4 μg/ml + F1201 2 μg/ml",1
same,growth score,"[1]; Table 17, oxacillin 4 μg/ml + F1201 4 μg/ml",1
same,growth score,"[1]; Table 17, oxacillin 4 μg/ml + F1201 8 μg/ml",0
same,growth score,"[1]; Table 17, oxacillin 4 μg/ml + F1201 16 μg/ml",0
same,growth score,"[1]; Table 17, oxacillin 4 μg/ml + F1201 32 μg/ml",0
same,growth score,"[1]; Table 17, oxacillin 16 μg/ml + F1201 2 μg/ml",1
same,growth score,"[1]; Table 17, oxacillin 16 μg/ml + F1201 4 μg/ml",0
same,growth score,"[1]; Table 17, oxacillin 16 μg/ml + F1201 8 μg/ml",0
same,growth score,"[1]; Table 17, oxacillin 16 μg/ml + F1201 16 μg/ml",0
same,growth score,"[1]; Table 17, oxacillin 16 μg/ml + F1201 32 μg/ml",0
same,growth score,"[1]; Table 17, oxacillin 64 μg/ml + F1201 2 μg/ml",0
same,growth score,"[1]; Table 17, oxacillin 64 μg/ml + F1201 4 μg/ml",0
same,growth score,"[1]; Table 17, oxacillin 64 μg/ml + F1201 8 μg/ml",0
same,growth score,"[1]; Table 17, oxacillin 64 μg/ml + F1201 16 μg/ml",0
same,growth score,"[1]; Table 17, oxacillin 64 μg/ml + F1201 32 μg/ml",0
same,growth score,"[1]; Table 17, oxacillin 128 μg/ml + F1201 2 μg/ml",0
same,growth score,"[1]; Table 17, oxacillin 128 μg/ml + F1201 4 μg/ml",0
same,growth score,"[1]; Table 17, oxacillin 128 μg/ml + F1201 8 μg/ml",0
same,growth score,"[1]; Table 17, oxacillin 128 μg/ml + F1201 16 μg/ml",0
same,growth score,"[1]; Table 17, oxacillin 128 μg/ml + F1201 32 μg/ml",0
same,growth score,"[1]; Table 17, oxacillin 256 μg/ml + F1201 2 μg/ml",0
same,growth score,"[1]; Table 17, oxacillin 256 μg/ml + F1201 4 μg/ml",0
same,growth score,"[1]; Table 17, oxacillin 256 μg/ml + F1201 8 μg/ml",0
same,growth score,"[1]; Table 17, oxacillin 256 μg/ml + F1201 16 μg/ml",0
same,growth score,"[1]; Table 17, oxacillin 256 μg/ml + F1201 32 μg/ml",0
same,MIC,[2],32 µg/mL
